Structures can show the parent of a compound that is named as a salt. Where two headings read alike, the source gives them in different places.
Target: T1, elastase from human neutrophil (Homo sapiens, UniProt P08246)
T1 construct: using elastase from human neutrophil; from tissue; host or cells: human neutrophil
T1 sequence (P08246 30-247 limits assumed): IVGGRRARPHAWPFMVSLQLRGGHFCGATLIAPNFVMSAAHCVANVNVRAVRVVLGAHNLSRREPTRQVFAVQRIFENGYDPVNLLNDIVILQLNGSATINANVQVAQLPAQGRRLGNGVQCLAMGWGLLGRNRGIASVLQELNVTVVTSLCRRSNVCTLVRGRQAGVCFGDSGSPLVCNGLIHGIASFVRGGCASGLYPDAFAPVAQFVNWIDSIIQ
Assay: Inhibitory effect on elastase (spectrophotometric method, substrate Suc-Ala-Pro-Ala-pNA)
Assay type: biochemical

[1] = Y represents an oxygen atom, pH 8.0, 37° C., 30 minutes, read-out: Inhibitory Effect on Elastase, IC50
[2] = Y represents a sulfur atom, pH 8.0, 37° C., 30 minutes, read-out: Elastase Inhibitory Effect, IC50
[3] = at 50 μg/ml, Y represents a sulfur atom, read-out: Elastase Inhibitory Effect, Inhibition %

Experimental: The test was carried out by the slight modification of the method of Bieth et al [see Biochem. Med., 75, 350 (1974)] using elastase from human neutrophil.
The reaction mixture consisted of 1 mM Suc-Ala-Pro-Ala-pNA (dissolving in N-methylpyrrolidone to the concentration of 100 mM, and then adding 1/100 amount of the solution to the reaction mixture.), 0.1 M buffer solution of tris-hydrochloric acid (pH 8.0), 0.2 M sodium chloride aqueous solution, the sample solution of various concentrations and enzyme solution in a final volume of 1.0 ml was incubated at 37° C. for 30 minutes.
The reaction was stopped by the addition of 100 μl of 50% acetic acid into the reaction mixture, and then p-nitro anilide released was measured on absorbance of 405 nm.
Inhibition percentage of the test compounds was caliculated by the following equation: [formula]

Compound | IC50 [1] [µM] | inhibition at 100 µM (Y represents an oxygen atom) [%] | also measured
N=C(N)Nc1ccc(C(=O)Oc2cc(Cl)cc(C(=O)Nc3ccc(S(N)(=O)=O)cc3)c2)cc1 [Example 102] | 1.3 | – | –
COC(=O)Cc1ccc(OC(=O)c2ccc(NC(=N)N)cc2)cc1Cl [Example 26] | – | 13.3 | –
CCN(CC)S(=O)(=O)c1ccc(SC(=O)c2ccc(NC(=N)N)cc2)cc1 [Example 146] | – | – | IC50 [2]: 11 µM; inhibition at 50 µg/mL [3]: 73.1%
COC(=O)C=Cc1ccc(OC(=O)c2ccc(NC(=N)N)cc2)cc1 [Example 27] | – | 31 | –
N=C(N)Nc1ccc(C(=O)Oc2ccccc2F)cc1 [Example 28] | 40 | 76.3 | –
CCNC(=O)Oc1cc(Cl)cc(OC(=O)c2ccc(NC(=N)N)cc2)c1 [Example 88] | – | – | IC50: 1.1 µM
COc1cc(Cl)cc(OC(=O)c2ccc(NC(=N)N)cc2)c1 [Example 39] | 2.4 | 91.1 | –
N=C(N)Nc1ccc(C(=O)Oc2cc(Cl)cc(Cl)c2)cc1 [Example 1, p-guanidinobenzoic acid 3,5-dichlorophenyl ester methanesulfonate] | 0.4 | 97 | –
COC(=O)c1cc(Cl)cc(OC(=O)c2ccc(NC(=N)N)cc2)c1 [Example 18] | 1.8 | – | –
Cc1ccccc1SC(=O)c1ccc(NC(=N)N)cc1 [Example 125] | – | – | IC50 [2]: 20 µM; inhibition at 50 µg/mL [3]: 76.3%
CCOC(=O)c1ccc(SC(=O)c2ccc(NC(=N)N)cc2)cc1 [Example 142] | – | – | inhibition at 50 µg/mL [3]: 69.1%
N=C(N)Nc1ccc(C(=O)Oc2cc(Cl)cc(OC(=O)c3ccc(NC(=N)N)cc3)c2)cc1 [Example 68] | 0.6 | – | –
CCOC(=O)Cc1ccc(SC(=O)c2ccc(NC(=N)N)cc2)cc1 [Example 144] | – | – | inhibition at 50 µg/mL [3]: 75.5%
N=C(N)Nc1ccc(C(=O)Oc2cccc(NC(=N)N)c2)cc1 [Example 116] | – | 20 | –
N=C(N)Nc1ccc(C(=O)Sc2ccccc2Br)cc1 [Example 138] | – | – | IC50 [2]: 1.6 µM; inhibition at 50 µg/mL [3]: 83.1%
N=C(N)Nc1ccc(C(=O)Sc2ccccc2Cl)cc1 [Example 132] | – | – | IC50 [2]: 1.8 µM; inhibition at 50 µg/mL [3]: 93%
N=C(N)Nc1ccc(C(=O)Oc2c(F)cccc2F)cc1 [Example 31] | 3.7 | – | –
CCN(CC)S(=O)(=O)c1ccc(OC(=O)c2ccc(NC(=N)N)cc2)c(F)c1 [Example 96] | 61 | – | –
CCNC(=O)c1cc(OC(=O)c2ccc(NC(=N)N)cc2)cc(C(=O)NCC)c1 [Example 83] | – | 28 | –
N=C(N)Nc1ccc(C(=O)Oc2cccc(C(F)(F)F)c2)cc1 [Example 46] | 13 | 71.4 | –
COC(=O)c1cc(OC(=O)c2ccc(NC(=N)N)cc2)cc(OC(=O)c2ccc(NC(=N)N)cc2)c1 [Example 67] | 70 | – | –
CCN(CC)S(=O)(=O)c1ccc(NC(=O)c2cc(Cl)cc(OC(=O)c3ccc(NC(=N)N)cc3)c2)cc1 [Example 104] | 1.1 | – | –
N=C(N)Nc1ccc(C(=O)Oc2cccc(OC(=O)c3ccc(NC(=N)N)cc3)c2)cc1 [Example 64] | 15 | – | –
Cc1ccccc1OC(=O)c1ccc(NC(=N)N)cc1 [Example 2] | – | 20.2 | –
N=C(N)Nc1ccc(C(=O)Oc2cc(Cl)cc(CO)c2)cc1 [Example 150, P-guanidinobenzoic acid 3-chloro-5-hydroxymethylphenylester acetate] | 4.5 | – | –

Compound | IC50 [1] [µM] | inhibition at 100 µM (Y represents an oxygen atom) [%] | also measured
COc1cc(O)cc(OC(=O)c2ccc(NC(=N)N)cc2)c1 [Example 110] | 20 | – | –
Cc1cccc(OC(=O)c2ccc(NC(=N)N)cc2)c1C [Example 4] | – | 5.9 | –
N=C(N)Nc1ccc(C(=O)Oc2ccc(Cl)cc2)cc1 [Example 36] | – | – | inhibition at 50 µg/mL (at 50 μg/ml (footnote 2), Y represents an oxygen atom, read-out: Inhibitory Effect on Elastase, Inhibition %): 14.9%
N=C(N)Nc1ccc(C(=O)Oc2cc(C(=O)O)cc(C(=O)O)c2)cc1 [Example 148] | – | 25 | –
CCN(CC)S(=O)(=O)c1ccccc1OC(=O)c1ccc(NC(=N)N)cc1 [Example 91] | 180 | – | –
CCC(C)OC(=O)c1cccc(OC(=O)c2ccc(NC(=N)N)cc2)c1Cl (centres unmarked) [Example 22] | 2.6 | – | –
N=C(N)Nc1ccc(C(=O)Sc2ccc(CC(=O)O)cc2)cc1 [Example 140] | – | – | inhibition at 50 µg/mL [3]: 47.8%
CC(C)OC(=O)c1cc(OC(=O)c2ccc(NC(=N)N)cc2)cc(C(=O)OC(C)C)c1 [Example 19] | – | 5.2 | –
COc1ccc(Cl)c(OC(=O)c2ccc(NC(=N)N)cc2)c1 [Example 41] | 13 | – | –
COC(=O)c1ccc(Cl)cc1OC(=O)c1ccc(NC(=N)N)cc1 [Example 17] | 5.8 | 92.2 | –
N=C(N)Nc1ccc(C(=O)Sc2ccc([N+](=O)[O-])cc2)cc1 [Example 145] | – | – | IC50 [2]: 18 µM; inhibition at 50 µg/mL [3]: 64.2%
N=C(N)Nc1ccc(C(=O)Oc2cc(Cl)ccc2C(=O)O)cc1 [Example 149] | 60 | – | –
N=C(N)Nc1ccc(C(=O)Oc2cccc(C(=O)O)c2Cl)cc1 [Example 147, P-guanidinobenzoic acid 3-carboxy-2-chlorophenylester hydrobromide] | 20 | – | –
CC(=O)Oc1cc(Cl)cc(OC(=O)c2ccc(NC(=N)N)cc2)c1 [Example 61] | 0.48 | – | –
COc1cc(OC(=O)c2ccc(NC(=N)N)cc2)cc(OS(C)(=O)=O)c1 [Example 73] | 4.7 | – | –
N=C(N)Nc1ccc(C(=O)Oc2cc(C(F)(F)F)cc(C(F)(F)F)c2)cc1 [Example 47] | 3.2 | – | –
CCN(CC)S(=O)(=O)c1cc(Cl)cc(OC(=O)c2ccc(NC(=N)N)cc2)c1 [Example 95] | 4.8 | – | –
COc1cccc(OC(=O)c2ccc(NC(=N)N)cc2)c1 [Example 8] | 100 | 50.9 | –
N=C(N)Nc1ccc(C(=O)Oc2ccc(S(=O)(=O)N3CCCC3)cc2)cc1 [Example 98] | 77 | – | –
COC(=O)c1cccc(OC(=O)c2ccc(NC(=N)N)cc2)c1Cl [Example 14] | 4 | 90.7 | –
N=C(N)Nc1ccc(C(=O)Oc2cccc(OC(=O)c3ccccc3)c2)cc1 [Example 63] | 11 | 78.3 | –
N=C(N)Nc1ccc(C(=O)Oc2ccc(C(=O)c3ccccc3)cc2Cl)cc1 [Example 56] | 48 | 57.1 | –
COc1ccccc1OC(=O)c1ccc(NC(=N)N)cc1 [Example 7] | – | 23.1 | –
COc1ccccc1SC(=O)c1ccc(NC(=N)N)cc1 [Example 128] | – | – | IC50 [2]: 21 µM; inhibition at 50 µg/mL [3]: 79.8%
N=C(N)Nc1ccc(C(=O)Oc2cccc(S(=O)(=O)N3CCOCC3)c2)cc1 [Example 100] | – | 44.2 | –

Compound | IC50 [1] [µM] | inhibition at 100 µM (Y represents an oxygen atom) [%] | also measured
N=C(N)Nc1ccc(C(=O)Oc2cccc(Br)c2)cc1 [Example 43] | 6 | 91.7 | –
COc1ccc(SC(=O)c2ccc(NC(=N)N)cc2)cc1 [Example 130] | – | – | inhibition at 50 µg/mL [3]: 48.2%
N=C(N)Nc1ccc(C(=O)Sc2ccc(C(=O)O)cc2)cc1 [Example 139] | – | – | inhibition at 50 µg/mL [3]: 23.2%
N=C(N)Nc1ccc(C(=O)Sc2ccc(F)cc2)cc1 [Example 131] | – | – | IC50 [2]: 21 µM; inhibition at 50 µg/mL [3]: 83%
COCc1cc(OC(=O)c2ccc(NC(=N)N)cc2)cc(OC(=O)c2ccc(NC(=N)N)cc2)c1 [Example 13] | 9.1 | 89 | –
COC(=O)c1ccc(OC(=O)c2ccc(NC(=N)N)cc2)c(Cl)c1 [Example 15] | 98 | 55.6 | –
N=C(N)Nc1ccc(C(=O)Oc2cc(Cl)cc(C(N)=O)c2)cc1 [Example 79] | 5.2 | – | –
N=C(N)Nc1ccc(C(=O)Oc2ccc(I)cc2)cc1 [Example 44] | – | 11.2 | –
COc1cc(OC(=O)c2ccc(NC(=N)N)cc2)cc(OC(=O)c2ccc(NC(=N)N)cc2)c1 [Example 69] | 1.6 | – | –
COC(=O)c1ccc(OC(=O)c2ccc(NC(=N)N)cc2)cc1Cl [Example 16] | – | 42 | –
CC(=O)OCc1cc(Cl)cc(OC(=O)c2ccc(NC(=N)N)cc2)c1 [Example 71] | 3 | – | –
CC(=O)c1cccc(OC(=O)c2ccc(NC(=N)N)cc2)c1 [Example 48] | – | 4.1 | –
COC(=O)Cc1cccc(OC(=O)c2ccc(NC(=N)N)cc2)c1 [Example 23] | – | 15.6 | –
N=C(N)Nc1ccc(SCc2cc(Cl)cc(OC(=O)c3ccc(NC(=N)N)cc3)c2)cc1 [Example 120] | 6 | – | –
CS(=O)(=O)Oc1cc(Cl)cc(OC(=O)c2ccc(NC(=N)N)cc2)c1 [Example 74] | 1 | – | –
N=C(N)Nc1ccc(C(=O)Oc2cc(Cl)cc(C(=O)N3CCS(=O)(=O)C3)c2)cc1 [Example 123] | 3.1 | – | –
N=C(N)Nc1ccc(C(=O)Oc2ccc(S(=O)(=O)N3CCOCC3)cc2)cc1 [Example 101] | – | 34.9 | –
Cc1cc(C)cc(OC(=O)c2ccc(NC(=N)N)cc2)c1 [Example 5] | – | 46.2 | –
CCS(=O)(=O)Oc1cc(COC)cc(OC(=O)c2ccc(NC(=N)N)cc2)c1 [Example 11] | 60 | 66 | –
CC(C)C(=O)c1ccc(Cl)cc1OC(=O)c1ccc(NC(=N)N)cc1 [Example 53] | 6.5 | – | –
COc1cc(COc2ccc(S(=O)(=O)N3CCOCC3)cc2)cc(OC(=O)c2ccc(NC(=N)N)cc2)c1 [Example 152, p-guanidinobenzoic acid 3-methoxy-5-(4-morpholinosulfonyl)phenoxymethylphenylester acetate] | 7 | – | –
CCN(CC)S(=O)(=O)c1cccc(OC(=O)c2ccc(NC(=N)N)cc2)c1 [Example 92] | 35 | – | –
CS(=O)(=O)c1ccc(OC(=O)c2ccc(NC(=N)N)cc2)cc1 [Example 72] | > 100 | – | –
Cc1cccc(SC(=O)c2ccc(NC(=N)N)cc2)c1 [Example 126] | – | – | IC50 [2]: 5 µM; inhibition at 50 µg/mL [3]: 89.7%

From patent US5247084A, “Derivatives of p-guanidinobenzoic acid” (priority 1985, dated 1993)
